# Test results reported in US4843070A, “Substituted thiazetoquinoline-3-carboxylic acids and pharmaceutically acceptable salts thereof” (priority 1986, dated 1989).
# Read-outs that look alike come from different tables or passages of the source.
# What was measured:
# Type in all cases: cell-based
# [1] = test system: S. aureus Smith; assay: MIC by agar plate dilution method, S. aureus Smith; conditions: Staphylococcus aureus, read-out: minimum inhibitory concentration (MIC)
# Procedure: (§1) Test method: The MIC was measured by an agar plate dilution method in accordance with a standard method of Japan Chemotherapeutic Society (cf. Nippon Kagaku Ryoho Gakkaishi, 29(1), 76-79, 1981). Thus, the organisms incubated at 37° C. for 18 hours using sensitivity test broth (Nissei) was diluted to 10^6 CFU/ml using the same broth. […] As a control, enoxacin and ofloxacin were used in Tests 1 and 2, respectively.
# (§2) The numbers of the inoculated bacteria were 10^6 in all cases and the unit of the MIC was micrograms/ml.
# [2] = test system: E. coli KC-14; assay: MIC by agar plate dilution method, E. coli KC-14; conditions: Escherichia coli, read-out: minimum inhibitory concentration (MIC)
# Procedure: as §1, §2
# [3] = test system: P. vulgaris HX-19; assay: MIC by agar plate dilution method, P. vulgaris HX-19; conditions: Proteus vulgaris, HX19, Test 1, inoculum 10^6, 37° C., 18 hours, read-out: minimum inhibitory concentration (MIC)
# Procedure: as §1, §2
# [4] = test system: K. pneumoniae K-1966; assay: MIC by agar plate dilution method, K. pneumoniae K-1966; conditions: Klebsiella pneumoniae, read-out: minimum inhibitory concentration (MIC)
# Procedure: as §1, §2
# [5] = test system: E. cloacae No. 1; assay: MIC by agar plate dilution method, E. cloacae No. 1; conditions: Enterobacter cloacae, read-out: minimum inhibitory concentration (MIC)
# Procedure: as §1, §2
# [6] = test system: P. aeruginosa E-2; assay: MIC by agar plate dilution method, P. aeruginosa E-2; conditions: Pseudomonas aeruginosa, read-out: minimum inhibitory concentration (MIC)
# Procedure: as §1, §2
# [7] = test system: S. aureus 209-P JC; assay: MIC by agar plate dilution method, S. aureus 209-P JC; conditions: Staphylococcus aureus, read-out: minimum inhibitory concentration (MIC)
# Procedure: as §1, §2
# [8] = test system: E. coli NIHJ JC-2; assay: MIC by agar plate dilution method, E. coli NIHJ JC-2; conditions: Escherichia coli, read-out: minimum inhibitory concentration (MIC)
# Procedure: as §1, §2
# [9] = test system: M. luteus ATCC 9341; assay: MIC by agar plate dilution method, M. luteus ATCC 9341; conditions: Micrococcus luteus, read-out: minimum inhibitory concentration (MIC)
# Procedure: as §1, §2
# [10] = test system: S. marcescens IFO 3736; assay: MIC by agar plate dilution method, S. marcescens IFO 3736; conditions: Serratia marcescens, read-out: minimum inhibitory concentration (MIC)
# Procedure: as §1, §2
# [11] = test system: A. calcoaceticus 54; assay: MIC by agar plate dilution method, A. calcoaceticus 54; conditions: read-out: minimum inhibitory concentration (MIC)
# Procedure: as §1, §2
# [12] = test system: S. flexneri; assay: MIC by agar plate dilution method, S. flexneri; conditions: Shigella flexneri, 18 hours, read-out: minimum inhibitory concentration (MIC)
# Procedure: as §1, §2
# [13] = test system: B. subtilis ATCC 6633; assay: MIC by agar plate dilution method, B. subtilis ATCC 6633; conditions: Bacillus subtilis, read-out: minimum inhibitory concentration (MIC)
# Procedure: as §1, §2
# [14] = test system: Proteus mirabilis 181; assay: MIC by agar plate dilution method, Proteus mirabilis 181; conditions: Test 2; Proteus mirabilis 181; inoculum 10^6; 37° C., 18 hours; read-out: minimum inhibitory concentration (MIC)
# Procedure: as §1, §2
# [15] = test system: S. epidermidis; assay: MIC by agar plate dilution method, S. epidermidis; conditions: Staphylococcus epidermidis, Test 2, inoculum 10^6, 37° C., 18 hours, read-out: minimum inhibitory concentration (MIC)
# Procedure: as §1, §2
# [16] = Test 1, S. aureus Smith, inoculum 10^6, 37° C., 18 hours
# [17] = KC14, Test 1, E. coli KC-14, inoculum 10^6, 37° C., 18 hours
# [18] = K1966, Test 1, K. pneumoniae K-1966, inoculum 10^6, 37° C., 18 hours
# [19] = Test 1, E. cloacae No. 1, inoculum 10^6, 37° C., 18 hours
# [20] = E2, Test 1, P. aeruginosa E-2, inoculum 10^6, 37° C., 18 hours
# [21] = Test 1, S. aureus 209-P JC, inoculum 10^6, 37° C., 18 hours
# [22] = NIHJJC2, Test 1, E. coli NIHJ JC-2, inoculum 10^6, 37° C., 18 hours
# [23] = ATCC9341, Test 1, M. luteus ATCC 9341, inoculum 10^6, 37° C., 18 hours
# [24] = IFO3736, Test 1, S. marcescens IFO 3736, inoculum 10^6, 37° C., 18 hours
# [25] = Acinetobacter calcoaceticus, Test 1, A. calcoaceticus 54, inoculum 10^6, 37° C., 18 hours
# [26] = ATCC6633, Test 1, B. subtilis ATCC 6633, inoculum 10^6, 37° C., 18 hours
structure (smiles),measurement,setting,value
CC1Sc2c(C(=O)O)c(=O)c3cc(F)c(N4CCSCC4)cc3n21 (stereo not drawn) [(6)],MIC,[1]; [16],≤ 0.0063 µg/mL
same,MIC,[2]; [17],0.05 µg/mL
same,MIC,[3],≤ 0.0063 µg/mL
same,MIC,[4]; [18],0.1 µg/mL
same,MIC,[5]; [19],0.39 µg/mL
same,MIC,[6]; [20],0.78 µg/mL
same,MIC,[7]; [21],0.05 µg/mL
same,MIC,[8]; [22],0.2 µg/mL
same,MIC,[9]; [23],1.56 µg/mL
same,MIC,[10]; [24],0.78 µg/mL
same,MIC,[11]; [25],0.2 µg/mL
same,MIC,"[12]; Test 1, inoculum 10^6, 37° C.",0.1 µg/mL
same,MIC,[13]; [26],≤ 0.0063 µg/mL
CC1Sc2c(C(=O)O)c(=O)c3cc(Cl)c(N4CCNCC4)cc3n21 (stereo not drawn) [(7)],MIC,[1]; [16],0.2 µg/mL
same,MIC,[2]; [17],0.025 µg/mL
same,MIC,[3],0.025 µg/mL
same,MIC,[4]; [18],0.025 µg/mL
same,MIC,[5]; [19],0.05 µg/mL
same,MIC,[6]; [20],1.56 µg/mL
same,MIC,[7]; [21],0.1 µg/mL
same,MIC,[8]; [22],0.05 µg/mL
same,MIC,[9]; [23],1.56 µg/mL
same,MIC,[10]; [24],0.1 µg/mL
same,MIC,[11]; [25],3.13 µg/mL
same,MIC,"[12]; Test 1, inoculum 10^6, 37° C.",0.0125 µg/mL
same,MIC,[13]; [26],0.2 µg/mL
"CC1Sc2c(C(=O)O)c(=O)c3cc(F)c(N4CCC(N)C4)cc3n21.CCS(=O)(=O)O (stereo not drawn) [Table 1 (8), 6-Fluoro-1-methyl-7-(3-amino-1-pyrrolidinyl)-4-oxo-4H-(1,3)thiazeto(3,2-a)quinoline-3-carboxylic acid ethanesulfonate]",MIC,[1]; 18 h,0.05 µg/mL
same,MIC,"[2]; KC14, 18 h",≤ 0.0063 µg/mL
same,MIC,[3],≤ 0.0063 µg/mL
same,MIC,"[4]; K1966, 18 h",0.025 µg/mL
same,MIC,"[5]; NO.1, 18 h",0.025 µg/mL
same,MIC,"[6]; E2, 18 h",0.1 µg/mL
same,MIC,"[7]; 209P, 18 h",0.025 µg/mL
same,MIC,"[8]; NIHJJC2, 18 h",0.05 µg/mL
same,MIC,"[9]; ATCC9341, 18 h",0.2 µg/mL
same,MIC,"[10]; IFO3736, 18 h",0.1 µg/mL
same,MIC,"[11]; Acinetobacter calcoaceticus, 54, 18 h",0.78 µg/mL
same,MIC,"[12]; Test 1, inoculum 10^6, 37° C.",≤ 0.0063 µg/mL
same,MIC,"[13]; ATCC6633, 18 h",0.05 µg/mL
"CC1Sc2c(C(=O)O)c(=O)c3cc(F)c(N4CCN(C)CC4)c(N)c3n21 (stereo not drawn) [Table 1 (9), 8-Amino-6-fluoro-1-methyl-7-(4-methyl-1-piperazinyl)-4-oxo-4H-(1,3)thiazeto(3,2-a)quinoline-3-carboxylic acid]",MIC,[1]; [16],0.2 µg/mL
same,MIC,[2]; [17],0.05 µg/mL
same,MIC,[3],0.025 µg/mL
same,MIC,[4]; [18],0.1 µg/mL
same,MIC,[5]; [19],0.2 µg/mL
same,MIC,[6]; [20],1.56 µg/mL
same,MIC,[7]; [21],0.39 µg/mL
same,MIC,[8]; [22],0.1 µg/mL
same,MIC,[9]; [23],50 µg/mL
same,MIC,[10]; [24],0.39 µg/mL
same,MIC,[11]; [25],0.78 µg/mL
same,MIC,"[12]; Test 1, inoculum 10^6, 37° C.",0.05 µg/mL
same,MIC,[13]; [26],0.2 µg/mL
"CC1Sc2c(C(=O)O)c(=O)c3cc(F)c(N4CCN(Cc5ccc(N)cc5)CC4)cc3n21 (stereo not drawn) [Table 1 (10), 7-(4-(4-Aminobenzyl)-1-piperazinyl)-6-fluoro-1-methyl-4-oxo-4H-(1,3)thiazeto(3,2-a)quinoline-3-carboxylic acid]",MIC,[1]; [16],≤ 0.0063 µg/mL
same,MIC,[2]; [17],0.05 µg/mL
same,MIC,[3],0.1 µg/mL
same,MIC,[4]; [18],0.2 µg/mL
same,MIC,[5]; [19],0.39 µg/mL
same,MIC,[6]; [20],3.13 µg/mL
same,MIC,[7]; [21],0.05 µg/mL
same,MIC,[8]; [22],0.2 µg/mL
same,MIC,[9]; [23],0.39 µg/mL
same,MIC,[10]; [24],0.56 µg/mL
same,MIC,[11]; [25],0.39 µg/mL
same,MIC,"[12]; Test 1, inoculum 10^6, 37° C.",0.1 µg/mL
same,MIC,[13]; [26],≤ 0.0063 µg/mL
"O=C(O)c1c2n(c3cc(N4CCNCC4)c(F)cc3c1=O)C(c1ccccc1)S2 (stereo not drawn) [Table 1 (11), 6-Fluoro-4-oxo-1-phenyl-7-(1-piperazinyl)-4H-(1,3)thiazeto(3,2-a)quinoline-3-carboxylic acid]",MIC,[14],0.05 µg/mL
same,MIC,[15],1.56 µg/mL
same,MIC,"[4]; K1966, Test 2, K. pneumoniae K-1966, inoculum 10^6, 37° C., 18 hours",0.025 µg/mL
same,MIC,"[6]; E2, Test 2, P. aeruginosa E-2, inoculum 10^6, 37° C., 18 hours",0.2 µg/mL
same,MIC,"[7]; Test 2, S. aureus 209-P JC, inoculum 10^6, 37° C., 18 hours",0.2 µg/mL
same,MIC,"[8]; NIHJJC2, Test 2, E. coli NIHJ JC-2, inoculum 10^6, 37° C., 18 hours",0.025 µg/mL
same,MIC,"[9]; ATCC9341, Test 2, M. luteus ATTC 9341, inoculum 10^6, 37° C., 18 hours",3.13 µg/mL
same,MIC,"[10]; IFO3736, Test 2, S. Marcescens IFO 3736, inoculum 10^6, 37° C., 18 hours",0.05 µg/mL
same,MIC,"[12]; Test 2, inoculum 10^6, 37° C.",0.025 µg/mL
same,MIC,"[13]; ATCC6633, Test 2, B. subtilis ATCC 6633, inoculum 10^6, 37° C., 18 hours",0.05 µg/mL
